For one series, the target named is T1, RON Kinase Enzyme (Homo sapiens, UniProt Q04912).
T1 construct: purchased Promega V3921
As to the kind of experiment: Kinase ADP-Glo inhibition assay. It counts as biochemical. Conditions: 25 μM ATP. How it is done: • Assay Buffer • 40 mM Tris-HCl pH7.5, 20 mM MgCl2, 0.1 mg/mL BSA • RON Kinase Enzyme System (Promega #: V3921) • Axltide Substrate • RON Kinase Enzyme • ADP-Glo™ Assay (Promega #: V9101) • ATP, 10 mM • ADP-Glo™ Reagent • Kinase Detection Reagent • 384-well white assay plates
A ten point serial dilution of compound was prepared at 5× concentration in assay buffer with the final assay concentrations starting at 30 μM, 10 μM, 3 μM, 1 μM . . . 0 μM. Enzyme, substrate, and ATP were used at 25 ng, 200 ng and 25 μM, respectively. The assay plate was set up by mixing the components in a total reaction volume of 10 μL per well. The plate was centrifuged gently for 10 seconds and incubated at room temperature (RT) for 60 minutes in the dark. The ADP-Glo Reagent and kinase detection reagent were added and incubated as recommended. The reaction was quantified by measuring luminescence on the Perkin Elmer Envision plate reader. Data was analyzed using Graphpad Prism 7 software.
In general terms: ADP-Glo turns the ADP formed in a reaction into a luminescent signal.

The target of another series is RON/MST1R (Homo sapiens, UniProt Q04912). Description: Ron tyrosine kinase inhibition assay (10 dose IC50 mode, 10 μM ATP). It counts as biochemical. The note with it: read-out: Compound IC50. How it is done: Compounds were tested in 10 dose IC50 mode with 3-fold serial dilution starting at 100 μM. […] Reactions were carried out at 10 μM ATP. Data pages include raw data, % Enzyme activity (relative to DMSO controls) and curve fits. Curve fits were performed where the enzyme activities at the highest concentration of compounds were less than 65%.
Chain of RON/MST1R (Q04912 25-1400): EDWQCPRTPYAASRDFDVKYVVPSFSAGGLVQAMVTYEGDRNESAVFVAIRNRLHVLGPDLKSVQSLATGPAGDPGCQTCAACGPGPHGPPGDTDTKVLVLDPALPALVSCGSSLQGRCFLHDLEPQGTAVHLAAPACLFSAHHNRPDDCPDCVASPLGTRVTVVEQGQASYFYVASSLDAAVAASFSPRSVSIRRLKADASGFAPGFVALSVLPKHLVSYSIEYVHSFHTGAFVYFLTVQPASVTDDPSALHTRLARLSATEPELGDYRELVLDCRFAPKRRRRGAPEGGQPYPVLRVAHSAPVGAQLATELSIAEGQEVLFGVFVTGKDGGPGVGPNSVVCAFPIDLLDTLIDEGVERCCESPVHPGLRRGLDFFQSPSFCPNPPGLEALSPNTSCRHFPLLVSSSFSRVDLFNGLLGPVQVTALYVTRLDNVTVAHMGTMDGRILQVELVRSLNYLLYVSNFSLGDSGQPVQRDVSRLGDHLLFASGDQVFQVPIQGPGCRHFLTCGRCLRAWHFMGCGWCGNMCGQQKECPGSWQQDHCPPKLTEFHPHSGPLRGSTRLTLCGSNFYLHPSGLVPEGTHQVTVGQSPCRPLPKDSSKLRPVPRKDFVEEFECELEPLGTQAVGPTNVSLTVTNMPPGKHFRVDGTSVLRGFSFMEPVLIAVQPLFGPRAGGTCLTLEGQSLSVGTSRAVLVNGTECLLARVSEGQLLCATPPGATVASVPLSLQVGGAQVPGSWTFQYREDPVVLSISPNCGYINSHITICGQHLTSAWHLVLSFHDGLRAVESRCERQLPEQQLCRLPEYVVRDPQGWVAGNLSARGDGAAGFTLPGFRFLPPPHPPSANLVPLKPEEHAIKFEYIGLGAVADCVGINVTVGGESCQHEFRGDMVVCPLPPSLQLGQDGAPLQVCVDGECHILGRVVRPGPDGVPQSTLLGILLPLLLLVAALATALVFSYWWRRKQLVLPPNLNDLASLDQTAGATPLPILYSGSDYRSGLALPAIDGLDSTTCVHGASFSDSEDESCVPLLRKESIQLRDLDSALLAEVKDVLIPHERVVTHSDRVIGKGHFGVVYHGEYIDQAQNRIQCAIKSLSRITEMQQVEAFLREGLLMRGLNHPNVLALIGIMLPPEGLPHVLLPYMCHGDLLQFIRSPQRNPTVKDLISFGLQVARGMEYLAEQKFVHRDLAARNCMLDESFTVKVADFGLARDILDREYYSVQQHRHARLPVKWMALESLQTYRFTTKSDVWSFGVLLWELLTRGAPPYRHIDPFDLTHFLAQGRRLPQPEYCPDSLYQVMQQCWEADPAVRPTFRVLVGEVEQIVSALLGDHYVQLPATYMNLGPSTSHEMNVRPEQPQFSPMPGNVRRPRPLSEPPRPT
IC50 values may be determined using GraphPad Prism 5 software. The data may be entered as an X-Y plot into the software as percent inhibition for each concentration of the drug. The concentration values of the drug may be log transformed and the nonlinear regression may be carried out using the “sigmoidal dose-response (variable slope)” option within the GraphPad software to model the data and calculate IC50 values. The IC50 values reported are the concentration of drug at which 50% inhibition was reached.

Series [1] in a line: Pharmacokinetic (PK) study of phosphate conjugates of BMS-777607 in male swiss albino mice. It is filed as in vivo. The note with it: 2 mg/kg single intravenous bolus; for AUC(0-t) / clearance / half-life / Vd / Kp / AUC(0-inf) / C0: mouse; for Vd: read-out: VSS; for Kp: read-out: bone to plasma ratios (AUClast). How it is done:
For extended time points (>24 hrs), BID dosing was done 8 hr apart.
The study was performed using sparse design to obtain composite profile (n=3/time point) as summarized in the table1. Blood and whole bone with marrow were collected at predetermined time points. At each time point, about 120 μL of blood was collected by retro-orbital sinus puncture into a labeled microfuge tube containing 200 mM K2EDTA solution (20 μL per mL of blood). The blood samples were processed within 30 minutes to obtain the plasma samples. At respective time points, blood samples were collected and animals were euthanized to harvest whole femur bone (bone with marrow). All plasma and bone with marrow samples were stored at −80° C.
The plasma and bone with bone marrow homogenate samples were analyzed using a fit-for purpose LC-MS/MS method with a lower limit of quantification (LLOQ) of 1.00 ng/ml (plasma) and 11.0 ng/g (bone). In some instances, bone marrow was separated from bone and analyzed independently. The pharmacokinetic parameters of the drugs were calculated using the non-compartmental analysis tool of validated Phoenix® WinNonlin® software (version 8.0).

[2] abbreviates: male, Swiss Albino, in vivo, iv, 2 mg/kg, Bone with Bone marrow.
Where [3] appears, read: male, Swiss Albino, in vivo, iv, 2 mg/kg, Plasma.
[4] abbreviates: in vivo, Plasma, male Swiss Albino mice.

Where two headings read alike, the source gives them in different places.

T1 sequence (Q04912 25-1400): as above

As a reminder, the IC50 is the concentration that gives 50% inhibition. For `CCOc1ccn(-c2ccc(F)cc2)c(=O)c1C(=O)Nc1ccc(Oc2ccnc(NC(P(=O)(O)O)P(=O)(O)O)c2Cl)c(F)c1` [Compound 1, (((3-chloro-4-(4-(4-ethoxy-1-(4-fluorophenyl)-2-oxo-1,2-dihydropyridine-3-carboxamido)-2-fluorophenoxy)pyridin-2-yl)amino)methylene)diphosphonic acid], the IC50 on RON Kinase Enzyme and at RON/MST1R was 13400 nM in each case.

As for `CCOc1ccn(-c2ccc(F)c(COP(=O)(O)O)c2)c(=O)c1C(=O)Nc1ccc(Oc2ccnc(N)c2Cl)c(F)c1` [Compound 13, sodium 5-(3-((4-((2-amino-3-chloropyridin-4-yl)oxy)-3-fluorophenyl)carbamoyl)-4-ethoxy-2-oxopyridin-1(2H)-yl)-2-fluorobenzyl phosphate], the IC50 against RON Kinase Enzyme came out at 2430 nM.

The AUC(0-t) is exposure summed from dosing to a finite time, without extrapolation to infinity. For orientation: clearance means the rate of elimination divided by the concentration. What is called half-life is the time needed for the level to fall by half in the phase considered. A low value points to rapid decline. By AUC(0-inf) is commonly meant the area under the concentration-time curve extrapolated to infinity. `Nc1nccc(Oc2ccc(NC(=O)c3c(OCP(=O)([O-])[O-])ccn(-c4ccc(F)cc4)c3=O)cc2F)c1Cl.[Na+].[Na+]` [Compound 10, (((3-((4-((2-amino-3-chloropyridin-4-yl)oxy)-3-fluorophenyl)carbamoyl)-1-(4-fluorophenyl)-2-oxo-1,2-dihydropyridin-4-yl)oxy)methyl)phosphonate] gave a half-inhibitory concentration (IC50) at RON Kinase Enzyme of 547 nM. Also, the accumulation in bone entry in series [1] is “accumulated in the bone”. The AUCinf in series [1] (Bone with Bone marrow) was 2920 h*ng · h/mL. In addition, in series [1] (setting [2]), the AUC(0-t) is 2420 ng·h/mL, the clearance was determined as 11.4 mL/min/kg, the half-life is 1.61 h and the Vd came out at 1.5 L/kg. For the same compound, in series [1] (setting [3]), the AUC(0-t) was 9830 ng·h/mL, the clearance amounted to 3.36 mL/min/kg, the half-life was 0.987 h and the Vd was determined as 0.179 L/kg. In series [1] (in vivo), the Kp came out at 0.25. In series [1] (in vivo, Plasma), the AUC(0-inf) is 9910 ng·h/mL and the C0 amounted to 16000 ng/mL.

With `CCOc1ccn(-c2ccc(F)cc2)c(=O)c1C(=O)Nc1ccc(Oc2ccnc(NC(P(=O)(OCC)OCC)P(=O)(OCC)OCC)c2Cl)c(F)c1` [Compound 9, tetraethyl (((3-chloro-4-(4-(4-ethoxy-1-(4-fluorophenyl)-2-oxo-1,2-dihydropyridine-3-carboxamido)-2-fluorophenoxy)pyridin-2-yl)amino)methylene)bis(phosphonate)], on RON Kinase Enzyme, the IC50 turned out to be 33800 nM.

Regarding `CCOc1ccn(-c2ccc(F)cc2)c(=O)c1C(=O)Nc1ccc(Oc2ccnc(N)c2Cl)c(F)c1` [BMS-777607, N-(4-((2-amino-3-chloropyridin-4-yl)oxy)-3-fluorophenyl)-4-ethoxy-1-(4-fluorophenyl)-2-oxo-1,2-dihydropyridine-3-carboxamide, reference compound], at RON Kinase Enzyme, inhibition was half-maximal at 18 nM (IC50). Further, the IC50 on RON/MST1R was determined as 17.2 nM. Also, in series [1] (Plasma), the AUC(0-inf) worked out at 1690 ng·h/mL, the AUC(0-t) was found to be 1690 ng·h/mL, the C0 came out at 3610 ng/mL and the clearance was 19.7 mL/min/kg. Besides, in series [1] (Plasma), the half-life is 3.42 h and the Vd came out at 1.42 L/kg. The compound further registered an AUC(0-t) in series [1] (bone (without marrow), Bone only) of 296 ng·h/mL. The Kp in series [1] (bone / plasma) amounted to 0.17.

Turning to `CCOc1ccn(-c2ccc(F)c(OCCC(P(=O)(O)O)P(=O)(O)O)c2)c(=O)c1C(=O)Nc1ccc(Oc2ccnc(N)c2Cl)c(F)c1` [Compound 11, sodium (3-(5-(3-((4-((2-amino-3-chloropyridin-4-yl)oxy)-3-fluorophenyl)carbamoyl)-4-ethoxy-2-oxopyridin-1(2H)-yl)-2-fluorophenoxy)propane-1,1-diyl)bis(phosphonate)], inhibition on RON Kinase Enzyme was half-maximal at 1270 nM (IC50).

Compound `CCOc1ccn(-c2ccc(F)c(OP(=O)(O)O)c2)c(=O)c1C(=O)Nc1ccc(Oc2ccnc(N)c2Cl)c(F)c1` [Compound 12, sodium 5-(3-((4-((2-amino-3-chloropyridin-4-yl)oxy)-3-fluorophenyl)carbamoyl)-4-ethoxy-2-oxopyridin-1(2H)-yl)-2-fluorophenyl phosphate] displayed an IC50 at RON Kinase Enzyme of 58 nM. Also, in series [1] (setting [4]), the AUC(0-inf) came to 963 ng·h/mL, the AUC(0-t) amounted to 959 ng·h/mL, the C0 came to 4680 ng/mL and the clearance was found to be 34.6 mL/min/kg. Also, in series [1] (setting [4]), the half-life is 1.17 h and the Vd came out at 0.879 L/kg.
